Assay results published in publication PMC10412636, “An analysis of interactions between three structurally diverse anthocyanidins, as well as their glucosides, and model biological membranes, albumin, and plasmid DNA” (Scientific Reports, 2023).

Columns and labels:
[1] = DPH probe fluorescence anisotropy in MM liposomes; conditions: for Changes in DPH anisotropy relative to the control: MM, negative = increase in anisotropy
Method: (§1) Two types of liposomes were used to study interactions with biological membranes: liposomes mimicking the composition of cancer cell membranes (mimic membrane liposome—MM) and liposomes formed from lipids extracted from human blood erythrocyte membranes (red blood cell membrane liposome—RBCM). […] Both lipids, dissolved in chloroform (MM liposome) and n-decane (RBCM liposome), were evaporated under a nitrogen atmosphere, and then dried in a desiccator for 90 min under a vacuum. The obtained dry lipid film was hydrated in phosphate buffer, pH 7.4, obtaining a concentration of 0.1 mg/ml, and then vortexed for one minute until a homogeneous, milky suspension was observed. The mixture was sonicated (Sonic, Milano, Italia) for 15 min keeping the sample in a bath of ice water, thus providing a cooling temperature of 0 °C. The suspension was then processed (extrusion) through polycarbonate filters with pore diameters of 100 and 200 nm using a Lipex extruder (Evonik). Liposomes, which had been prepared according to this procedure, was used in fluorimetric studies.
(§2) To investigate these properties three fluorescent probes were used: MC540, TMA-DPH, and DPH. MC540 localizes to the outer, hydrophilic part of the membrane, within the region of the glycerol skeleton[44]. Changes in the fluorescence intensity of this probe were formulated as the relative change in intensity to the control as a function of anthocyanins concentration. The TMA-DPH and DPH probes are supposed to locate nearer to the interface and in the hydrophobic region, respectively[45]. The measurement of changes in the anisotropy of the TMA-DPH and DPH probes allowed us to reflect the mobility of the fluorescent probes in the membrane, and therefore to determine the fluidity of the bilayer[46]. Fluorescence anisotropy was calculated using the formula[47]:1 A=I‖-GI⊥/I‖+2GI⊥ where I‖ and I⊥ are the intensity of fluorescence in parallel and perpendicular directions, to the plane of polarization of the excitation wave, respectively. G is an apparatus constant that depends on the emission wavelength.
(§3) Liposomes (the concentration of lipids in the sample was 0.1 mg/ml) were incubated for 30 min with the appropriate probe (dissolved in DMF, 1 µM concentration), and then the tested anthocyanins were added (final concentration of 1 to 30 µM). The control sample consisted of liposomes and a fluorescent probe. Fluorescence was measured on a fluorimeter (Cary Eclipse, Varian, San Diego, USA) at 37 °C. The excitation wavelengths λex and emission wavelengths λem respectively: MC540—λexc = 540 nm, λem = 590 nm; DPH—λexc = 360 nm, λem = 425 nm. nm; TMA-DPH—λexc = 340 nm, λem = 430 nm.

[2] = target: human serum albumin (HSA) (Homo sapiens, UniProt P02768); experiment: Quenching of natural fluorescence of human serum albumin; format: binding; conditions: HSA […] 10^–5 M, 37 °C
Method: The phenomenon of quenching the natural fluorescence of human serum albumin (HSA) was used to investigate the potential interaction of anthocyanins with this protein. […] Anthocyanins with concentrations ranging from 1 to 30 µM were added to HSA dissolved in phosphate buffer (1.5 × 10^–5 M) and then incubated at 37 °C for 20 min. Emission spectra were performed on a fluorimeter Cary Eclipse (Varian, San Diego, USA) at 37 °C. HSA fluorescence was excited with a wavelength of λ = 280 nm, the emission was measured in the range from 286 to 460 nm, and the fluorescence intensity was read at 345 nm where the emission maximum of HSA was located.
The Stern–Volmer equation was used to thoroughly describe the quenching mechanism of natural fluorescence and to determine the bindings parameters of HSA: anthocyanin complexes:4 F0/F=1+Kqτ0Q=1+KSV[Q] where F0—fluorescence intensity in the absence of anthocyanins (control sample), F—fluorescence intensity in the presence of anthocyanins, KSV—Stern–Volmer quenching constant (KSV = Kq·τ0), [Q]—concentration of quencher (tested compound), Kq—bimolecular quenching constant, τ0—a lifetime of the fluorophore in the absence of quencher the fluorescence lifetime of a biopolymer is calculated as 5 × 10^–9 s[51].
The apparent binding constants (Kb) and the number of binding sites (n) can be calculated using the following equation:5 log(F0-F/F]=logKb+nlog[Q]
F0 and F are the fluorescence intensities before and after the addition of the quencher. From the linear plot of log (F0 − F)/F versus log [Q], the value of Kb was obtained from the intercept.

[3] = MC540 probe fluorescence intensity in RBCM liposomes; parameters: species or system human; conditions: 37 °C, positive = decrease
Method: as §1, §2, §3

[4] = TMA-DPH probe fluorescence anisotropy in RBCM liposomes; parameters: species or system human; conditions: negative = increase in anisotropy
Source text: Two types of liposomes were used to study interactions with biological membranes: liposomes mimicking the composition of cancer cell membranes (mimic membrane liposome—MM) and liposomes formed from lipids extracted from human blood erythrocyte membranes (red blood cell membrane liposome—RBCM). […] The RBCM liposome was according to the methodology described previously[42] with minor modifications[43]. Both lipids, dissolved in chloroform (MM liposome) and n-decane (RBCM liposome), were evaporated under a nitrogen atmosphere, and then dried in a desiccator for 90 min under a vacuum. The obtained dry lipid film was hydrated in phosphate buffer, pH 7.4, obtaining a concentration of 0.1 mg/ml, and then vortexed for one minute until a homogeneous, milky suspension was observed. The mixture was sonicated (Sonic, Milano, Italia) for 15 min keeping the sample in a bath of ice water, thus providing a cooling temperature of 0 °C. The suspension was then processed (extrusion) through polycarbonate filters with pore diameters of 100 and 200 nm using a Lipex extruder (Evonik). Liposomes, which had been prepared according to this procedure, was used in fluorimetric studies.
To investigate these properties three fluorescent probes were used: MC540, TMA-DPH, and DPH. MC540 localizes to the outer, hydrophilic part of the membrane, within the region of the glycerol skeleton[44]. […] The TMA-DPH and DPH probes are supposed to locate nearer to the interface and in the hydrophobic region, respectively[45]. The measurement of changes in the anisotropy of the TMA-DPH and DPH probes allowed us to reflect the mobility of the fluorescent probes in the membrane, and therefore to determine the fluidity of the bilayer[46]. Fluorescence anisotropy was calculated using the formula[47]:1 A=I‖-GI⊥/I‖+2GI⊥ where I‖ and I⊥ are the intensity of fluorescence in parallel and perpendicular directions, to the plane of polarization of the excitation wave, respectively. G is an apparatus constant that depends on the emission wavelength.
as §3

[5] = DPH probe fluorescence anisotropy in RBCM liposomes; parameters: species or system human; conditions: for Changes in DPH anisotropy relative to the control: RBCM, negative = increase in anisotropy
Method: as §1, §2, §3

[6] = DPH fluorescence quenching, dissociation constant with RBCM liposome membrane; format: binding, human; conditions: 37 °C
Method: as §1
(§4) The phenomenon of quenching the fluorescence of the DPH probe by biologically active substances enabled us to evaluate the partition coefficient (Kd, dissociation constant) of anthocyanins with both MM and RBCM liposome membranes. For this purpose, changes in the fluorescence intensity of this probe were checked and the coefficient was calculated using the equation[48]:2 1/F0/F-1=Kd/[liposomes]×1/[anthocyanins]+1/liposomes where F0—fluorescence intensity in the absence of anthocyanins (control sample), F—fluorescence intensity in the presence of anthocyanins, [liposomes]—concentration of liposomes in mg/ml, [anthocyanins]—concentration of anthocyanins tested mg/ml.
as §3

[7] = system: pHbApr-1-Neo plasmid DNA; experiment: TCSPC-FCS of PicoGreen-labelled plasmid DNA with anthocyanins; format: binding; conditions: for changes in plasmid tD, lower compared to those obtained for Pt 3-glc: comp/bp up to 0.8
Method: To evaluate the biological interaction with DNA molecules the anthocyanins were initially dissolved in ETOH (1 mM). […] Mixing of such solutions with the aqueous DNA solutions used in the studies never exceeded 1% concentration ETOH (v/v) in the final solution. The DNA plasmid was labelled by PicoGreen (CPicoGreen/CDNAbp = 0.02)[52]. The pHbApr-1-Neo plasmid (10 kbp and contour length 3.4 µm) was a generous gift from the laboratory of Prof. Maciej Ugorski (Department of Biochemistry and Molecular Biology, Wrocław University of Environmental and Life Sciences Wroclaw, Poland). PicoGreen-labelled DNA samples mixed with the appropriate amount of anthocyanins were left overnight and then measured. The increasing concentration of anthocyanins in the tested samples was expressed as the ratio of the molar concentration of anthocyanins per molar concentration of DNA base pairs in a given sample (comp/bp). The 100 µl samples were measured in Ibidi 8-well chambers. Each point on the graph is a single sample (average of 10 measurements). All measurements were performed at room temperature (25 °C). Time-correlated single-photon counting fluorescence correlation spectroscopy (TCSPC-FCS) was used to study the interaction of plasmid DNA at the single molecule level with all tested anthocyanins. […] Low power of 1uW (at the back aperture of the objective) was chosen to minimize photobleaching and saturation. In the detection plane, a pinhole (50um in diameter) was used and the signal was collected by a single photon avalanche diode (SPAD, Microphoton Devices, Bolzano, Italy). Photon arrival times were stored using fast electronics (Picoharp 300, PicoQuant) in time-tagged time-resolved recording mode. Two independent times were assigned to each detected photon: (1) a time after the beginning of the measurement and (2) a time after the previous laser pulse. The FCS data analysis was done using home-built routines (DevC++, Bloodshed Software and OriginPro70, OriginLab Corporation). The TCSPC data analysis was performed using SymPhoTime software (PicoQuant). Further details of the data evaluation are given elsewhere.

[8] = MC540 probe fluorescence intensity in MM liposomes; conditions: 37 °C, positive = decrease
Method: as §1, §2, §3

[9] = DPH fluorescence quenching, dissociation constant with MM liposome membrane; format: binding; conditions: 37 °C
Method: as §1, §4, §3

[10] = TMA-DPH probe fluorescence anisotropy in MM liposomes; conditions: negative = increase in anisotropy
Method: as §1, §2, §3

Chain of human serum albumin (HSA) (P02768 25-609): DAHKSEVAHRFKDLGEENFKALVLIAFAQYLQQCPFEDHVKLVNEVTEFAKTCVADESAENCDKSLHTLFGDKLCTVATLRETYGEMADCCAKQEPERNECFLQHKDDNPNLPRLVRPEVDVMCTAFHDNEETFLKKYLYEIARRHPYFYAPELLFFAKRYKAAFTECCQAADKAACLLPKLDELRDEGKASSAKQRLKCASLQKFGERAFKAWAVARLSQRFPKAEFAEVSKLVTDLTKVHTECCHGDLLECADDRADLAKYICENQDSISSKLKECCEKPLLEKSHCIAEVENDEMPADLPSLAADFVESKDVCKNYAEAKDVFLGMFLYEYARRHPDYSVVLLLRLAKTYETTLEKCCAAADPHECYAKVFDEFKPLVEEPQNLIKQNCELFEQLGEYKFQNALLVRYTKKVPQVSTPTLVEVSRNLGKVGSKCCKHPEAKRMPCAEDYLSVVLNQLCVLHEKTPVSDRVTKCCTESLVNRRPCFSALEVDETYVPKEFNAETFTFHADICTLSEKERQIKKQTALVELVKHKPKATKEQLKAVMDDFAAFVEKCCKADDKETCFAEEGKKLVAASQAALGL

Oc1cc(O)c2cc(O)c(-c3cc(O)c(O)c(O)c3)[o+]c2c1 [Dp, Delphinidin]
Changes in DPH anisotropy relative to the control ([1]; 1 µM): -8.87±0.24%
Changes in DPH anisotropy relative to the control ([1]; 5 µM): -12.33±0.13%
Changes in DPH anisotropy relative to the control ([1]; 10 µM): -14.45±0.24%
Changes in DPH anisotropy relative to the control ([1]; 20 µM): -16.33±0.38%
Changes in DPH anisotropy relative to the control ([1]; 30 µM): -12.45±0.57%
Stern Volmer constant KSV [2]: 22.46 ± 1.00 × 10^3 M^−1
number of binding sites n [2]: 1.03 ± 0.05
Changes in MC540 fluorescence intensity relative to the control ([3]; 1 µM): 19.22±0.56%
Changes in MC540 fluorescence intensity relative to the control ([3]; 5 µM): 30.39±0.90%
Changes in MC540 fluorescence intensity relative to the control ([3]; 10 µM): 42.45±2.77%
Changes in MC540 fluorescence intensity relative to the control ([3]; 20 µM): 58.15±3.73%
Changes in MC540 fluorescence intensity relative to the control ([3]; 30 µM): 64.08±6.62%
Changes in MC540 fluorescence intensity relative to the control ([3]; 30 µM, listed as delphinidin): 64.1 ± 6.6%
Changes in TMA-DPH anisotropy relative to the control ([4]; 1 µM): -5.61±0.35%
Changes in TMA-DPH anisotropy relative to the control ([4]; 5 µM): -2.41±0.11%
Changes in TMA-DPH anisotropy relative to the control ([4]; 10 µM): 1.85±0.06%
Changes in TMA-DPH anisotropy relative to the control ([4]; 20 µM): 1.35±0.15%
Changes in TMA-DPH anisotropy relative to the control ([4]; 30 µM): 4.73±0.21%
Changes in DPH anisotropy relative to the control ([5]; 1 µM): -9.06±0.14%
Changes in DPH anisotropy relative to the control ([5]; 5 µM): -9.32±0.41%
Changes in DPH anisotropy relative to the control ([5]; 10 µM): -6.55±0.22%
Changes in DPH anisotropy relative to the control ([5]; 20 µM): -8.84±0.31%
Changes in DPH anisotropy relative to the control ([5]; 30 µM): -7.33±0.24%
Kd [6]: 9.89 ± 1.96 µM
change in Particle Number (PN) ([7]; comp/bp 1.0–5.0): no changes
diffusion time (tD), plateau ([7]; comp/bp 1.0–5.0): 25 to 28 ms
lifetime (LT) ([7]; comp/bp 1.0–5.0, decrease from 3.5 ns): about 2.3 ns
decrease in the diffusion time (tD) ([7]; comp/bp = 0.8, from about 70 ms): tenfold
lifetime (LT) ([7]; comp/bp = 0.8, plasmid alone 4.25 ns): about 3.5 ns
Particle Number (PN) ([7]; comp/bp = 0.8, plasmid alone 5): about 1.2
diffusion time (tD) ([7]; comp/bp = 0.8, plasmid alone about 70 ms): 7.0 ms
changes in plasmid tD, lower compared to those obtained for Pt 3-glc [7]: about 2 fold
decrease in tD compared to the initial plasmid diffusion time ([7]; plateau, comp/bp 1.0–5.0): twofold
Changes in MC540 fluorescence intensity relative to the control ([8]; 1 µM): 13.66±1.64%
Changes in MC540 fluorescence intensity relative to the control ([8]; 5 µM): 26.57±1.99%
Changes in MC540 fluorescence intensity relative to the control ([8]; 10 µM): 41.91±1.76%
Changes in MC540 fluorescence intensity relative to the control ([8]; 20 µM): 63.50±4.28%
Changes in MC540 fluorescence intensity relative to the control ([8]; 30 µM): 73.23±5.31%
Changes in MC540 fluorescence intensity relative to the control ([8]; 30 µM, listed as delphinidin): 73.2 ± 5.3%
Kd [9]: 11.5 ± 2.07 µM
Changes in TMA-DPH anisotropy relative to the control ([10]; 1 µM): -5.27±0.20%
Changes in TMA-DPH anisotropy relative to the control ([10]; 5 µM): -5.27±0.16%
Changes in TMA-DPH anisotropy relative to the control ([10]; 10 µM): -2.04±0.17%
Changes in TMA-DPH anisotropy relative to the control ([10]; 20 µM): 0.86±0.02%
Changes in TMA-DPH anisotropy relative to the control ([10]; 30 µM): -7.43±0.30%

COc1cc(-c2[o+]c3cc(O)cc(O)c3cc2O)cc(O)c1O [Pt, Petunidin]
highest percentage of an increase in DPH anisotropy relative to the control ([1]; MM liposome, 20 µM): 17.6 ± 0.4%
Changes in DPH anisotropy relative to the control ([1]; 1 µM): -13.00±0.31%
Changes in DPH anisotropy relative to the control ([1]; 5 µM): -15.66±0.33%
Changes in DPH anisotropy relative to the control ([1]; 10 µM): -17.48±0.09%
Changes in DPH anisotropy relative to the control ([1]; 20 µM): -17.59±0.36%
Changes in DPH anisotropy relative to the control ([1]; 30 µM): -14.74±0.10%
Stern Volmer constant KSV [2]: 25.99 ± 1.77 × 10^3 M^−1
number of binding sites n [2]: 1.03 ± 0.03
Changes in MC540 fluorescence intensity relative to the control ([3]; 1 µM): 16.68±0.58%
Changes in MC540 fluorescence intensity relative to the control ([3]; 5 µM): 32.60±0.15%
Changes in MC540 fluorescence intensity relative to the control ([3]; 10 µM): 43.35±1.60%
Changes in MC540 fluorescence intensity relative to the control ([3]; 20 µM): 55.02±1.41%
Changes in MC540 fluorescence intensity relative to the control ([3]; 30 µM): 61.93±1.58%
Changes in MC540 fluorescence intensity relative to the control ([3]; 30 µM, listed as petunidin): 61.9 ± 1.6%
Changes in TMA-DPH anisotropy relative to the control ([4]; 1 µM): -4.68±0.23%
Changes in TMA-DPH anisotropy relative to the control ([4]; 5 µM): -0.95±0.03%
Changes in TMA-DPH anisotropy relative to the control ([4]; 10 µM): -1.05±0.03%
Changes in TMA-DPH anisotropy relative to the control ([4]; 20 µM): 1.13±0.07%
Changes in TMA-DPH anisotropy relative to the control ([4]; 30 µM): 0.70±0.02%
highest percentage of an increase in DPH anisotropy relative to the control ([5]; RBCM liposome, 20 µM): 10.5 ± 0.7%
Changes in DPH anisotropy relative to the control ([5]; 1 µM): -9.91±0.36%
Changes in DPH anisotropy relative to the control ([5]; 5 µM): -8.46±0.42%
Changes in DPH anisotropy relative to the control ([5]; 10 µM): -10.18±0.39%
Changes in DPH anisotropy relative to the control ([5]; 20 µM): -10.51±0.67%
Changes in DPH anisotropy relative to the control ([5]; 30 µM): -9.21±0.62%
Kd [6]: 15.3 ± 4.01 µM
lifetime (LT) ([7]; comp/bp from 0 to 5, continuous decrease from 4.25 ns): 2.3 ns
Particle Number (PN) ([7]; comp/bp from 0 to 5, continuous decrease from 5.0): about 0
changes in plasmid tD, lower compared to those obtained for Pt 3-glc [7]: ~3.5 fold
decrease in the diffusion time (tD) ([7]; tested range of comp/bp from 0 to 5): 3.5 fold
Changes in MC540 fluorescence intensity relative to the control ([8]; 1 µM): 17.63±1.11%
Changes in MC540 fluorescence intensity relative to the control ([8]; 5 µM): 36.62±1.63%
Changes in MC540 fluorescence intensity relative to the control ([8]; 10 µM): 50.22±5.62%
Changes in MC540 fluorescence intensity relative to the control ([8]; 20 µM): 64.46±7.12%
Changes in MC540 fluorescence intensity relative to the control ([8]; 30 µM): 72.51±3.32%
Changes in MC540 fluorescence intensity relative to the control ([8]; 30 µM, listed as petunidin): 72.5 ± 3.3%
Kd [9]: 10.4 ± 2.45 µM
Changes in TMA-DPH anisotropy relative to the control ([10]; 1 µM): -5.05±0.11%
Changes in TMA-DPH anisotropy relative to the control ([10]; 5 µM): -4.34±0.09%
Changes in TMA-DPH anisotropy relative to the control ([10]; 10 µM): -2.97±0.04%
Changes in TMA-DPH anisotropy relative to the control ([10]; 20 µM): -5.53±0.11%
Changes in TMA-DPH anisotropy relative to the control ([10]; 30 µM): -5.92±0.33%
